Assay results as given in patent US20260284011A1, “COMPOUNDS FOR RESTORING SUSCEPTIBILITY TO BETA-LACTAM ANTIBIOTICS” (UNIVERSITY OF NOTRE DAME DU LAC, priority 2023, published 2026).
Read-outs that look alike come from different tables or passages of the source.

How the values were obtained:
ATCC 29213, MSSA, bla + = experiment: MIC determination and potentiation assay (microdilution broth); type: cell-based, Staphylococcus aureus; conditions: for MIC: Staphylococcus aureus
Method: (§1) MICs were determined by the microdilution broth method following the Clinical & Laboratory Standards Institute (CLSI) guidelines. […] Experiments were performed in triplicate in 96-well plates with 5×10^5 CFU·mL^−1 of bacteria. […] The MIC was the concentration for which bacterial growth was not observed.

[1] = test system: COL (NRS100), MRSA, SCCmec I, bla −; experiment: as above; type: cell-based, Staphylococcus aureus; conditions: for MIC: Staphylococcus aureus
Method: as §1

[2] = test system: HIP 133170 (VRS3a), MRSA/VRSA, SCCmec IV, bla +; experiment: as above; type: cell-based, Staphylococcus aureus; conditions: for MIC: Staphylococcus aureus
Method: as §1

[3] = test system: HIP07920 (NRS21), MRSA/VISA, SCCmec IV, bla +; experiment: as above; type: cell-based, Staphylococcus aureus; conditions: for MIC: Staphylococcus aureus, agent alone
Method: as §1

[4] = test system: HIP15178 (VRS5), MRSA/VRSA, SCCmec II, bla +; experiment: as above; type: cell-based, Staphylococcus aureus; conditions: for MIC: Staphylococcus aureus
Method: as §1

[5] = test system: JE2, MRSA, SCCmec IV, bla −; experiment: as above; type: cell-based, Staphylococcus aureus; conditions: for MIC: Staphylococcus aureus, MRSA, agent alone
Method: as §1

[6] = test system: LIM2 (NRS36), MRSA, SCCmec I, bla +; experiment: as above; type: cell-based, Staphylococcus aureus; conditions: for MIC: Staphylococcus aureus
Method: as §1

[7] = test system: NTCT 8325 (NRS77), MSSA, bla −; experiment: as above; type: cell-based, Staphylococcus aureus; conditions: for MIC: Staphylococcus aureus
Method: as §1

[8] = test system: 626 (NRS382), MRSA, SCCmec II, bla +; experiment: as above; type: cell-based; conditions: Staphylococcus aureus
Method: as §1

[9] = test system: ATCC 33591, MRSA, SCCmec III, bla +; experiment: as above; type: cell-based; conditions: Staphylococcus aureus
Method: as §1

[10] = test system: CA-127 (NRS643), MRSA, SCCmec IV, bla +; experiment: as above; type: cell-based; conditions: Staphylococcus aureus
Method: as §1

[11] = test system: HIP5836 (NRS4), MRSA/VISA, SCCmec II, bla +; experiment: as above; type: cell-based; conditions: Staphylococcus aureus, agent alone
Method: as §1

NRS128, MSSA, bla + = experiment: as above; type: cell-based; conditions: Staphylococcus aureus
Method: as §1

[12] = test system: various MRSA strains (NRS21, NRS70, NRS382, NRS404, HFH29568, HFH30495); experiment: Time-kill assays (FIG. 6); type: cell-based, Staphylococcus aureus; conditions: at 24 h
Method: Time-kill assay. MRSA strains (NRS21, NRS70, NRS382, NRS404, HFH 29568, and HFH 30495) were grown overnight on tryptic soy agar plate. Bacteria were diluted in Muller-Hinton broth containing 2% NaCl to […] CFU·mL^−1. […] For MEM and CPT, cation-adjusted Muller-Hinton broth without 2% NaCl was used. Aliquots were taken at 0, 3, 6, 9, 12, and 24 h and were diluted serially for bacterial counts. The assay was done in triplicate.

[13] = test system: strain FPR3757 (a USA300 strain); experiment: Checkerboard assay; type: cell-based, Staphylococcus aureus; conditions: 24-h incubation
Method: Synergy with β-Lactams and Time-Kill Assays. […] In this assay, the antibiotics are compared individually and in combination. The fractional inhibitory concentration (FIC) index is calculated. Synergy is defined as an FIC value ≤0.5, indifference as FIC >0.5 to ≤4, and antagonism as FIC >4.
Checkerboard assay. […] The final inoculum in each well was 5×10^5 CFU·mL^−1, and the result was read after 24-h incubation at 37° C. The fractional inhibitory concentration (FIC) index was calculated for each combination. An FIC index of ≤0.5 is considered synergistic. The experiment was done in triplicates.

FPR3757 (USA300 clone) = experiment: Time-kill assay; type: cell-based, Staphylococcus aureus; conditions: for antibacterial activity as single-drug treatment: FIG. 3, 24 h, MEM 2 mg·L^−1, 4 8 mg·L^−1
[14] = ATCC 29213, agent alone, read-out: MIC
[15] = COL (NRS100), agent alone, read-out: MIC
[16] = HIP 133170 (VRS3a), agent alone, read-out: MIC
[17] = HIP15178 (VRS5), agent alone, read-out: MIC
[18] = LIM2 (NRS36), agent alone, read-out: MIC
[19] = NTCT 8325 (NRS77), agent alone, read-out: MIC
[20] = 626 (NRS382), agent alone, read-out: MIC
[21] = ATCC 33591, agent alone, read-out: MIC
[22] = CA-127 (NRS643), agent alone, read-out: MIC
[23] = NRS128, agent alone, read-out: MIC
[24] = MSSA strain ATCC29213, 4 at 8 mg·L^−1
[25] = strain NTCT8325, 4 at 8 mg·L^−1

Compound	MIC (ATCC 29213, MSSA, bla +; [14]) [µg/mL]	MIC [1, 15] [µg/mL]	MIC [2, 16] [µg/mL]	MIC ([3]; HIP07920 (NRS21)) [µg/mL]	MIC [4, 17] [µg/mL]	MIC [5] [µg/mL]	MIC [6, 18] [µg/mL]	MIC [7, 19] [µg/mL]	MIC [8, 20] [µg/mL]	MIC [9, 21] [µg/mL]	MIC [10, 22] [µg/mL]	MIC [11] [µg/mL]	MIC (NRS128, MSSA, bla +; [23]) [µg/mL]	reduction in bacterial growth by itself [12]	FIC index, 4 with MEM [13]	antibacterial activity as single-drug treatment (FPR3757 (USA300 clone))	MIC [2] [µg/mL]	MIC [4] [µg/mL]	MIC [6] [µg/mL]	MIC [8] [µg/mL]	further results
CCO/N=C(\C(=O)N[C@@H]1C(=O)N2C(C(=O)[O-])=C(Sc3nc(-c4cc[n+](C)cc4)cs3)CS[C@H]12)c1nsc(N)n1 [CPT, ceftaroline]	0.06	1	1	0.5	1	1	1	0.25	1	1	0.5	0.25	0.06	Neither OXA, MEM, CPT, or compound 4 by itself showed reduction in bacterial growth							
N#Cc1ccc2nc(SCB(O)O)n(Cc3ccc(C(F)(F)F)cc3C(F)(F)F)c2c1 [Compound 4, (((1-(2,4-bis(trifluoro-methyl)benzyl)-6-cyano-1H-benzo[d]imidazol-2-yl)thio)methyl)boronic acid]	16	32	16	8	32	16	16	16	16	16	16	16	16	Neither OXA, MEM, CPT, or compound 4 by itself showed reduction in bacterial growth	0.13	did not show antibacterial activity					fold lowering of MEM MIC by 4 (ATCC 29213, MSSA, bla +; [24]): 2 fold; fold lowering of OXA MIC by 4 (ATCC 29213, MSSA, bla +; [24]): 4 fold; fold lowering of MEM MIC by 4 ([1]; COL, 4 at 8 mg·L^−1): 16 fold; fold reduction of OXA MIC by 4 ([1]; COL, 4 at 8 mg·L^−1): 2 fold; fold lowering of MEM MIC by 4 ([2]; vancomycin-resistant MRSA, Table 1 entry 19 (VRS3a)): 256 fold; fold lowering of FOX MIC by 4 ([3]; strain NRS21, 4 at 4 mg·L^−1): 2048 fold; fold reduction of OXA MIC by 4 ([3]; strain NRS21, 4 at 4 mg·L^−1): 4096 fold; fold lowering of MEM MIC by 4 ([4]; vancomycin-resistant MRSA, Table 1 entry 13 (VRS5)): 64 fold; fold lowering of MEM MIC by 4 ([5]; 4 at 8 mg·L^−1): 64 fold; fold reduction of OXA MIC by 4 ([5]; 4 at 8 mg·L^−1): 2 fold; fold lowering of MEM MIC by 4 ([6]; strain NRS36, 4 at 8 mg·L^−1): 512 fold; fold lowering of OXA MIC by 4 ([6]; strain NRS36, 4 at 8 mg·L^−1): 64 fold; effect of 4 on the OXA MIC [7, 25]: no effect; fold lowering of MEM MIC by 4 [7, 25]: 2 fold
CO[C@@]1(NC(=O)Cc2cccs2)C(=O)N2C(C(=O)O)=C(COC(N)=O)CS[C@@H]21 [FOX, cefoxitin]	4	256		64		64		4				64					128	128	128	512	MIC [9]: 128 µg/mL; MIC [10]: 128 µg/mL; MIC (NRS128, MSSA, bla +): 4 µg/mL
C[C@@H](O)[C@H]1C(=O)N2C(C(=O)O)=C(S[C@@H]3CN[C@H](C(=O)N(C)C)C3)[C@H](C)[C@H]12 [MEM, meropenem]	0.13	16	16	8	8	4	8	0.13	32	16	4	8	0.13	Neither OXA, MEM, CPT, or compound 4 by itself showed reduction in bacterial growth	0.13	did not show antibacterial activity					activity of MEM by itself (FPR3757 (USA300 clone); throughout the 24-h assay): no activity
Cc1onc(-c2ccccc2)c1C(=O)N[C@@H]1C(=O)N2[C@@H]1SC(C)(C)[C@@H]2C(=O)O [OXA, oxacillin]														Neither OXA, MEM, CPT, or compound 4 by itself showed reduction in bacterial growth			256	256	64	512	MIC (ATCC 29213, MSSA, bla +): 2 µg/mL; MIC [1]: 512 µg/mL; MIC of the β-lactam with 4 ([3]; HIP07920 (NRS21), Concentration of 4: 4 mg · L^−1): 0.03 µg/mL; MIC [7]: 0.25 µg/mL; MIC [9]: 512 µg/mL; MIC [10]: 64 µg/mL; MIC (NRS128, MSSA, bla +): 0.5 µg/mL
